Assay [1] has as its target T1, Alpha-1A adrenergic receptor (Homo sapiens, UniProt P35348).
T1 sequence (P35348 whole entry): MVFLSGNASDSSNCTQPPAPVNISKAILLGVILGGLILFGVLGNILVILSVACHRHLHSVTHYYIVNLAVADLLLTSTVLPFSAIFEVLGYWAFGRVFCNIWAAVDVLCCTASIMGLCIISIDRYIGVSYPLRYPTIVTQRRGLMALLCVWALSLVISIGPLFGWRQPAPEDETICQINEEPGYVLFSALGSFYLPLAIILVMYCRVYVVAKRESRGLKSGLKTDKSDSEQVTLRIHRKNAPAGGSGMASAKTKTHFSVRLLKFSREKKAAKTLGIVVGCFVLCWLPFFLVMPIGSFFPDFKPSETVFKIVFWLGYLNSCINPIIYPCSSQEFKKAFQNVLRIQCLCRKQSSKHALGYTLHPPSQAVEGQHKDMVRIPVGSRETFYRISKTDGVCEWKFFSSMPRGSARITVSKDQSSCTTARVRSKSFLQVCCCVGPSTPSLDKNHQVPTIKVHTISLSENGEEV

In assay [2] the target is T2, Muscarinic acetylcholine receptor M1 (Homo sapiens, UniProt P11229).
T2 sequence (P11229 whole entry): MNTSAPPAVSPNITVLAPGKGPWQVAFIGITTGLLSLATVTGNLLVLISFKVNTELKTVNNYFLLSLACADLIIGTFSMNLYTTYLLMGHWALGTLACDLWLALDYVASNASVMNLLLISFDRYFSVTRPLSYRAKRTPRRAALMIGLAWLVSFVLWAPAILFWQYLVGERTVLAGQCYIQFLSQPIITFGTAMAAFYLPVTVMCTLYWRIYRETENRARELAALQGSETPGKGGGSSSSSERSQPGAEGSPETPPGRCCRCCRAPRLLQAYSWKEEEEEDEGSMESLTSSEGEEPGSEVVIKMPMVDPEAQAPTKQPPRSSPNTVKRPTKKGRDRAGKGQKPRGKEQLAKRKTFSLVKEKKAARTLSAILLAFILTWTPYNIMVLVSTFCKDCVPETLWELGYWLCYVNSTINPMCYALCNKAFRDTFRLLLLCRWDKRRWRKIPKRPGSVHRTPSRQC

The target in another assay is D(1A) dopamine receptor (Homo sapiens, UniProt P21728).
D(1A) dopamine receptor, sequence (P21728 whole entry): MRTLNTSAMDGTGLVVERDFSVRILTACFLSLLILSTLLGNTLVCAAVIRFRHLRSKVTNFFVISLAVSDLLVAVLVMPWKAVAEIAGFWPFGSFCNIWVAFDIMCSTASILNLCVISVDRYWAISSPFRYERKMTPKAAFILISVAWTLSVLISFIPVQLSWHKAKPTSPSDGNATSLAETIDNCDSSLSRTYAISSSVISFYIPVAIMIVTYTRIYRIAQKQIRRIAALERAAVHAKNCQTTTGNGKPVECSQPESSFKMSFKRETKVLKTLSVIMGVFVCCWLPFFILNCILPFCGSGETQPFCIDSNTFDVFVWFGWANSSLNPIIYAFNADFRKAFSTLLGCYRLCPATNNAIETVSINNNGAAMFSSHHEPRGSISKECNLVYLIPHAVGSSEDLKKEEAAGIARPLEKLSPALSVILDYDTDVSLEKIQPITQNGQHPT
The target in assay [3] is Beta-3 adrenergic receptor (Homo sapiens, UniProt P13945).
Assay [4] concerns the target Voltage-dependent N-type calcium channel subunit alpha-1B (Rattus norvegicus, UniProt Q02294). Type of assay: functional.
In assay [5] the target is 5-hydroxytryptamine receptor 2B (Homo sapiens, UniProt P41595).
Assay [6] deals with T3, 5-hydroxytryptamine receptor 1A (Homo sapiens, UniProt P08908).
T3 sequence (P08908 whole entry): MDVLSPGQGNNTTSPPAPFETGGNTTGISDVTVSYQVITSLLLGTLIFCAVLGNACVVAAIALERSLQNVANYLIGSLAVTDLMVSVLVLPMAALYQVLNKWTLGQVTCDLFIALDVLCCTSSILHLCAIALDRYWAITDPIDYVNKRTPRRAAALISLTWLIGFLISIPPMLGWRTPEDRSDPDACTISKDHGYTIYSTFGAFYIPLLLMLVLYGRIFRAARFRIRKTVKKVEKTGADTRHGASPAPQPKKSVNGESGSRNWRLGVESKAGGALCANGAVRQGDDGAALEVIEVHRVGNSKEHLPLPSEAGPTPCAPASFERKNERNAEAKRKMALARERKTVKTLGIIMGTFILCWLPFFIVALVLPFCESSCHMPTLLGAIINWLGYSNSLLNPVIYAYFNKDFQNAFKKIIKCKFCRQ

The target in assay [7] is T4, Muscarinic acetylcholine receptor M2 (Homo sapiens, UniProt P08172).
T4 sequence (P08172 whole entry): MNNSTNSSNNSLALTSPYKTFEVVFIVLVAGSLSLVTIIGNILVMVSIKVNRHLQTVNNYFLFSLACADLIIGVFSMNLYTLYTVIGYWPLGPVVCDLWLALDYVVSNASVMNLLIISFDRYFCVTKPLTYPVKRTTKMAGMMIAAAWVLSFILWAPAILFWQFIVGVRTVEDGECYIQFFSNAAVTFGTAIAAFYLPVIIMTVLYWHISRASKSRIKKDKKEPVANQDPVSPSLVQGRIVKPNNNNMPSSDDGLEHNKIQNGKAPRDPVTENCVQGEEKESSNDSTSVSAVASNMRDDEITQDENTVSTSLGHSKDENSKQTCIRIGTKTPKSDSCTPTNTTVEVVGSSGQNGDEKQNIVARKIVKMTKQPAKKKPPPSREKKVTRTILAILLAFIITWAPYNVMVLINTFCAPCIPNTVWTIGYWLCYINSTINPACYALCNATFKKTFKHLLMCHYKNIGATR

The target of assay [8] is T5, Gamma-aminobutyric acid receptor subunit alpha-1/alpha-2/beta-2/gamma-2 (Homo sapiens, UniProt P14867+P18507+P47869+P47870). It counts as functional, cell-based.
T5 sequence (P14867 whole entry): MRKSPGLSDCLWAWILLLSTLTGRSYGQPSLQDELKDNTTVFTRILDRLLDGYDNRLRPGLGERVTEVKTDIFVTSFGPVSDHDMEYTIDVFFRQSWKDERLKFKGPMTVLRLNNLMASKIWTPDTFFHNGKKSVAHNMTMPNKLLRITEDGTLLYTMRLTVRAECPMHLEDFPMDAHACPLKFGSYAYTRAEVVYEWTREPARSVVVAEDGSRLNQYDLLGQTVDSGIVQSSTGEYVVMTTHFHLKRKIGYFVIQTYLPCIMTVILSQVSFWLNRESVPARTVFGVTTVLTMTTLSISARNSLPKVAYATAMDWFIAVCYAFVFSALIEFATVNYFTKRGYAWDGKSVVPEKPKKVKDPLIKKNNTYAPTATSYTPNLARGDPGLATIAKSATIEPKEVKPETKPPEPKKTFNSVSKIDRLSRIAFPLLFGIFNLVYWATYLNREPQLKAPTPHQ
T5 sequence (P47870 whole entry): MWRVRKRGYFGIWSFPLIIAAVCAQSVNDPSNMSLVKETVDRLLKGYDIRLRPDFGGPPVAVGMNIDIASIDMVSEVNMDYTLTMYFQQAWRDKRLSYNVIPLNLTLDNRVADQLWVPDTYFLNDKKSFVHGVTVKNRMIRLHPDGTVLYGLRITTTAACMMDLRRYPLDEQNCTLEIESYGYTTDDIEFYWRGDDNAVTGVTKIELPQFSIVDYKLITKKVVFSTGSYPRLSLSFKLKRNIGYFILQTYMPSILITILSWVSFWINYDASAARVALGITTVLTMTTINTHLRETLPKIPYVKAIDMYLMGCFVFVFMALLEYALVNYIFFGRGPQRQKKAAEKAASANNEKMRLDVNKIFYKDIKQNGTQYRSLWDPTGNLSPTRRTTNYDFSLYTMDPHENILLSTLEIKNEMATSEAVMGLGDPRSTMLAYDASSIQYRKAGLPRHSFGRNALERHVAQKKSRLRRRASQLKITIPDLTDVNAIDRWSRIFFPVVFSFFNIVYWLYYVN
T5 sequence (P18507 whole entry): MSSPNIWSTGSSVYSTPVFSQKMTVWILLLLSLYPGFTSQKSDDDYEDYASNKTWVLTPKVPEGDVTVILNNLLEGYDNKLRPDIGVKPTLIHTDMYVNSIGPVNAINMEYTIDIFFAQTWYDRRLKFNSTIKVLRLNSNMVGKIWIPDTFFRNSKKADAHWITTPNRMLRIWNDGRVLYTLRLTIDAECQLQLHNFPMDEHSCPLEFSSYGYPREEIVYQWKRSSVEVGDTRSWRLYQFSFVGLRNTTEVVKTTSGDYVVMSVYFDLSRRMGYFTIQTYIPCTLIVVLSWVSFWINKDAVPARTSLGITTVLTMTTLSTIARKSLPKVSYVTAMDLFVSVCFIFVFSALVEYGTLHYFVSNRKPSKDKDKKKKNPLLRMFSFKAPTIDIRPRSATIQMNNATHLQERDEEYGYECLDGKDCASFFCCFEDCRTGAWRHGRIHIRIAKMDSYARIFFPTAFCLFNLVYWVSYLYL
T5 sequence (P47869 whole entry): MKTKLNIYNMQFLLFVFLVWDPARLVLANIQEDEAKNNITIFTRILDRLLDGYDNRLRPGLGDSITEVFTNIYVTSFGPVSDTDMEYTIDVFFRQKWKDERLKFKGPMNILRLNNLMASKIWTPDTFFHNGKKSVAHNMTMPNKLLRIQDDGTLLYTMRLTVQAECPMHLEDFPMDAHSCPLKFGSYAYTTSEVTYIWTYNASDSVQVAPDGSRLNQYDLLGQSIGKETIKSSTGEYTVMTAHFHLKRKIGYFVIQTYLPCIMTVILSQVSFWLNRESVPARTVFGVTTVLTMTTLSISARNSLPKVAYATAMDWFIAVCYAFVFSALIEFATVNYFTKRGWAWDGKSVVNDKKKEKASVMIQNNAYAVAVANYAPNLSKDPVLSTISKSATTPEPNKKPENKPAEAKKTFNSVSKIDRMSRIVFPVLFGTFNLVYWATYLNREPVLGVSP
Assay [9] addresses T5, Gamma-aminobutyric acid receptor subunit alpha-1/alpha-2/beta-2/gamma-2. Type of assay: functional, cell-based. The source holds these as a separate data set.
In another assay the target is Histamine H1 receptor (Homo sapiens, UniProt P35367). Type of assay: functional, cell-based.
The target of assay [10] is T6, Peroxisome proliferator-activated receptor gamma (Homo sapiens, UniProt P37231).
T6 sequence (P37231 whole entry): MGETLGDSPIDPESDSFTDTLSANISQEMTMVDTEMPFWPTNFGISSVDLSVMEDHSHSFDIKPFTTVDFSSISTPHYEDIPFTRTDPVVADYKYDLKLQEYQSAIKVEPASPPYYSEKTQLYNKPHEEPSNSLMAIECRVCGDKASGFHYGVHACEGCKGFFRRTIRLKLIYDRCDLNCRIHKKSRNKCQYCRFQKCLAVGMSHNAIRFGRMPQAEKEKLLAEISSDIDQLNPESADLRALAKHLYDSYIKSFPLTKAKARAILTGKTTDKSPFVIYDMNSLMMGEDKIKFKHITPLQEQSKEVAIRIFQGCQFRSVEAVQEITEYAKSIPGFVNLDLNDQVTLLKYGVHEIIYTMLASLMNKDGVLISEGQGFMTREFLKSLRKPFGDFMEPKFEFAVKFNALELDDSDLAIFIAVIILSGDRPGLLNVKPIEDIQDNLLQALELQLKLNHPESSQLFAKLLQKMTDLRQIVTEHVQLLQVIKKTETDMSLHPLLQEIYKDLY
It counts as functional.

For assay [11], the target named is T6, Peroxisome proliferator-activated receptor gamma. Type of assay: functional. This is another data set of the same source.

Molecules are shown by their SMILES.

The record followed here is ChEMBL document CHEMBL5291721, “A preclinical secondary pharmacology resource illuminates target-adverse drug reaction associations of marketed drugs” (Nat Commun, 2023).
Further: assay procedure not described here.

Voltage-dependent N-type calcium channel subunit alpha-1B, sequence (Q02294 whole entry): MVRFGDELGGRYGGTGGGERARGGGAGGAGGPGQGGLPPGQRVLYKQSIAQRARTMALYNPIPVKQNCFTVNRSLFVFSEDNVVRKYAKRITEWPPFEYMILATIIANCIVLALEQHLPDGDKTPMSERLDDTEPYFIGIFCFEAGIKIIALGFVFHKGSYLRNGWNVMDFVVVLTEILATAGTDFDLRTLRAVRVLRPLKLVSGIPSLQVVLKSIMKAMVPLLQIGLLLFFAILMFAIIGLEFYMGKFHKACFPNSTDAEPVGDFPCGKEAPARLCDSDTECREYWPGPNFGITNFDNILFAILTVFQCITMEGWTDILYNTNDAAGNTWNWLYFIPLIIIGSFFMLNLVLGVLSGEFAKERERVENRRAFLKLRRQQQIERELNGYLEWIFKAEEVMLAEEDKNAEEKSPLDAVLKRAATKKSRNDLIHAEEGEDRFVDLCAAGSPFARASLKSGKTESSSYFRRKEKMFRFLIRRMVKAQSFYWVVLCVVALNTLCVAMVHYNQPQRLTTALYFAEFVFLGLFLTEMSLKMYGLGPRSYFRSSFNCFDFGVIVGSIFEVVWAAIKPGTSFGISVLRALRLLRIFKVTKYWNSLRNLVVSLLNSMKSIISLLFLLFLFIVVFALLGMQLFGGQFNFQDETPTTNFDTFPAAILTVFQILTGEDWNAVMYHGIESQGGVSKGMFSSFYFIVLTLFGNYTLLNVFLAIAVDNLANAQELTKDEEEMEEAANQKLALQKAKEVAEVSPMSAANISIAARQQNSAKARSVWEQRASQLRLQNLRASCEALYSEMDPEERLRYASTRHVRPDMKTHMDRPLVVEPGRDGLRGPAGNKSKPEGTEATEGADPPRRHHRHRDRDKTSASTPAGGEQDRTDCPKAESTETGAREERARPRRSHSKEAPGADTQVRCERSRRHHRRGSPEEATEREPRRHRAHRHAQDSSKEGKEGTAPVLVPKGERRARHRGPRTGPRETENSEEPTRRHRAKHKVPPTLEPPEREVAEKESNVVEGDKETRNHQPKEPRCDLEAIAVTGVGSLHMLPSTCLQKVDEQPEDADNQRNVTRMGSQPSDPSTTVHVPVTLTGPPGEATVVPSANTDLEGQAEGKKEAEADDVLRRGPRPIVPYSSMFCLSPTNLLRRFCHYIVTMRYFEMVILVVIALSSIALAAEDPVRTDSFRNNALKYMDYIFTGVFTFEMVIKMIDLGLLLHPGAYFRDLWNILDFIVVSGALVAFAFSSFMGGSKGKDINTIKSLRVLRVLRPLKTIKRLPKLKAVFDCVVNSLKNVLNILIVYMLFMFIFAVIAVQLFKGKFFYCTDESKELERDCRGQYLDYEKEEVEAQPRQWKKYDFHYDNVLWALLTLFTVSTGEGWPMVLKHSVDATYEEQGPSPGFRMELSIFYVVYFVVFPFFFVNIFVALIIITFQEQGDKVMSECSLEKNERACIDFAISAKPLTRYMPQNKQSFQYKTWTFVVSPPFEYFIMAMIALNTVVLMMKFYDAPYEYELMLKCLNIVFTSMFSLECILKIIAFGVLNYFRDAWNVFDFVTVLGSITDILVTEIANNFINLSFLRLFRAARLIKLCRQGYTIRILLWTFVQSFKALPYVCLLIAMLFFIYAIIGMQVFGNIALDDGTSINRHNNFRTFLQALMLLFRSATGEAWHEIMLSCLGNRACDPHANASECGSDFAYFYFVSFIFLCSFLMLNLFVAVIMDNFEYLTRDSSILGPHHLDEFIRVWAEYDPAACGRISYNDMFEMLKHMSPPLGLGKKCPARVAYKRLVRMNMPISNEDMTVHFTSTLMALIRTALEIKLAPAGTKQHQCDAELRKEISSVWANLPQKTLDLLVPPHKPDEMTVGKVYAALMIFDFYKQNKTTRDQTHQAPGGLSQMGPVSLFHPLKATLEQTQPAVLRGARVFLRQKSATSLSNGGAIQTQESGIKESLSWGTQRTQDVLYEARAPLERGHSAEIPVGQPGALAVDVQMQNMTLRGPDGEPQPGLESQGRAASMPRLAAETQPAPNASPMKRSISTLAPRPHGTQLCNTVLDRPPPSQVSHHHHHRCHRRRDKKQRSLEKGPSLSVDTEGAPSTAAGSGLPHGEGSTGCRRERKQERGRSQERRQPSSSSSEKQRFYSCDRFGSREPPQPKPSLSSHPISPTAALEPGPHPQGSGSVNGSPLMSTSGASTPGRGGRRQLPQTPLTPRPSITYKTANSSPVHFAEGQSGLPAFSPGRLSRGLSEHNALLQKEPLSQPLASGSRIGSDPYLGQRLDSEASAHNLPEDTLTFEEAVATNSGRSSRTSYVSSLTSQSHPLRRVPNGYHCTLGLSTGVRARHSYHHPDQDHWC

As usually defined, the AC50 is the concentration at which the activity in the assay is half-maximal. As to `C[C@@H](O)[C@H]1C(=O)N2C(C(=O)O)=C(S[C@@H]3CN[C@H](C(=O)Nc4cccc(C(=O)O)c4)C3)[C@H](C)[C@H]12`, the AC50 (in assay [1]; in assay [2]; at D(1A) dopamine receptor) was over 30 µM throughout.
In the case of `CC(=O)OC1CN2CCC1CC2` (configuration not stated) [ACECLIDINE], the AC50 (in [1]; on D(1A) dopamine receptor) was over 30 µM throughout.
`N=C(N)NC(=O)c1nc(Cl)c(N)nc1N` [AMILORIDE]: the AC50 is over 30 µM in [3]; over 10 µM in assay [4]; 5.63 µM in assay [5]; over 10 µM in assay [6]; over 10 µM in assay [7].
As for `CC(=O)Nc1ccc(/C=N/NC(N)=S)cc1` [AMITHIOZONE], the AC50 (in [1]; in assay [2]; on D(1A) dopamine receptor) was over 30 µM in each case.
As to `CC(C)(C)NCC(O)COc1ccccc1C#N` (configuration not stated) [BUNITROLOL], the concentration at half-maximal activity (AC50) in assay [8] and in assay [9] was over 30 µM throughout.
Take `C[C@]12C=CC(=O)C=C1C(Cl)=C[C@@H]1[C@@H]2[C@@H](O)C[C@@]2(C)[C@H]1CC[C@]2(O)C(=O)CO` [CLOPREDNOL]: the AC50 (in assay [9]; at Histamine H1 receptor; in [10]; in assay [11]) was over 30 µM throughout.
Regarding `COc1cccc2c1C(=O)c1c(O)c3c(c(O)c1C2=O)C[C@@](O)(C(=O)CO)C[C@@H]3O[C@H]1C[C@H](N)[C@H](O)[C@H](C)O1` [DOXORUBICIN], the AC50 in assay [4] was over 10 µM; in [10], over 30 µM; in assay [11], over 10 µM; in assay [6] it was over 10 µM.
In [5], `C[C@]12CCC(=O)C=C1[C@@H]1C[C@@H]1[C@H]1[C@@H]3[C@@H]4C[C@@H]4[C@@]4(CCC(=O)O4)[C@@]3(C)CC[C@@H]12` [DROSPIRENONE] showed an AC50 of over 30 µM.
For the compound `CC(C)(Oc1ccc(Cl)cc1)C(=O)OCCOC(=O)c1cccnc1` [ETOFIBRATE], the AC50 in [10] and in [11] was over 30 µM in each case.
In the case of `CCn1c(=O)c2c(nc(/C=C/c3ccc(OC)c(OC)c3)n2C)n(CC)c1=O` [ISTRADEFYLLINE], the AC50 at Histamine H1 receptor is over 30 µM.
Take `CSCC[C@H](N)C(=O)O` [METHIONINE]: the AC50 (in assay [1]; in assay [2]; on D(1A) dopamine receptor) was over 30 µM in each case.
`COc1ccc(C(=O)c2ccccc2)c(O)c1` [OXYBENZONE]: the AC50 in assay [8] and in assay [9] was over 30 µM throughout.
As to `OC(CN1CCCCC1)c1cc(-c2ccccc2)on1` (configuration not stated) [PERISOXAL], the AC50 in [1] was 3.86 µM; in [2] it was 20.4 µM; on D(1A) dopamine receptor, over 30 µM.
Turning to `C[C@]12C=CC(=O)C=C1CC[C@@H]1[C@@H]2[C@@H](O)C[C@@]2(C)[C@H]1CC[C@]2(O)C(=O)CO` [PREDNISOLONE], the AC50 in assay [3] is over 30 µM; in assay [4], over 10 µM; in assay [6], over 10 µM; in assay [7] it was over 10 µM.
`CCC(=O)c1ccc2c(c1)N(CC(C)N(C)C)c1ccccc1S2` (configuration not stated) [PROPIOMAZINE]: the activity in assay [7] was half-maximal at 0.265 µM (AC50).
For the compound `Cc1ccc(O)c([C@H](CCN(C(C)C)C(C)C)c2ccccc2)c1` [TOLTERODINE], the AC50 in assay [3] was over 30 µM; in assay [4] it was over 10 µM; in assay [5], over 10 µM; in [6], over 10 µM.
In the case of `Oc1cc(Cl)ccc1Oc1ccc(Cl)cc1Cl` [TRICLOSAN], the concentration at half-maximal activity (AC50) (in assay [8]; in assay [9]; on Histamine H1 receptor) was over 30 µM in each case.
